Reference: US10100282B2, “Differentiation of pluripotent cells” (FUJIFILM Cellular Dynamics, Inc., priority 2009, dated 2018)

Tests used:
pluripotent cells = assay: Hematopoietic differentiation in defined cell culture media with single growth factors; type: cell-based; conditions: factor alone in a cell culture media
hESCs = assay: Cytokine matrix: serum-free EB hematopoietic differentiation, surface markers by flow cytometry; type: cell-based, human; conditions: for role during EB differentiation: serum free hematopoietic differentiation, days 8, 12, 17
Procedure: Cells were collected from each well/condition and washed once with media. The cell pellet was digested using TrypLE™ or 0.5% trypsin for 5-10 minutes in a 37° C. incubator followed by washes with media and passage through a 70-μm cell strainer. […] Non-viable cells were excluded with 7-aminoactinomycin D (7-AAD, BD Biosciences). Live cell analysis was performed on a FACSCalibur™ or Accuri flow cytometer and Cell Quest software. hESCs adapted to feeder free growth on matrigel maintained using mTESR were preconditioned for three days in the presence of X-vivo-15 containing 0.1 ng/ml TGF-β and 20 ng/ml FGF-2. Cells were harvested using TrypLE for 6 minutes at 37 C. TrypLE™ was neutralized using EB basal media containing 1 μM ROCK inhibitor (H-1152), Soybean trypsin inhibitor (0.25 mg/ml). The cells were washed once in EB basal media containing 1 μM ROCK inhibitor and soybean trypsin inhibitor (0.25 mg/ml). The cells were plated in low attachment plates in EB basal media containing 1 μM ROCK inhibitor and soybean trypsin inhibitor (0.25 mg/ml). The media was changed the next day to EB basal media containing different cytokine formulations. […] The cytokine combinations used are listed below in Table 3. The EB cultures were half fed with fresh differentiation media every two days. The EB cultures were harvested on day 8, 12 and 17 of differentiation. The EB cultures were harvested by spinning down all the cells and digesting the EBs with TrypLE™ or 0.5% trypsin. The phenotype of the progenitor cell types was analyzed by flow cytometry and the cells were plated in methylcellulose media for CFU assays. “FLT3” refers to the Flt3 ligand below.

ROCK = conditions: cited from earlier work
hESCs and iPSCs = assay: EB formation from single cell suspensions using ROCK inhibitors/PVA; type: cell-based, human; conditions: 18-24 hrs
Procedure: hESCs and iPSCs adapted to feeder free growth on matrigel maintained using mTESR were preconditioned for three days in the presence of mTesR-GF containing 0.1 ng/ml TGF-β and 20 ng/ml FGF-2. To initiate differentiation from single cells the, the cultures were treated with TrypLE™ (Invitrogen) for 6 minutes and the cells suspension was collected in (1) plain EB basal media, (2) EB basal media containing PVA, (3) EB basal media containing 0.5% PVA and 1 μM H1152 or 10 μM Y27632 ROCK inhibitor, or (4) EB basal media containing only 1 uM H1152 ROCK inhibitor. The cells were collected and washed once and plated in the respective media formulations on a low attachment plate at 37 C. The EB formation status was checked at 18-24 hrs later under a phase contrast microscope.

[1] = ROCK inhibitor present (1 μM H1152 or 10 μM Y27632), 0.5% PVA present
[2] = ROCK inhibitor present, PVA absent

Row | Molecule | CD31 expressing cells (hESCs; DAY 8, factor ABSENT) | CD34 expressing cells (hESCs; DAY 8, factor ABSENT) | CD43 expressing cells (hESCs; DAY 8, factor ABSENT) | CD45 expressing cells (hESCs; DAY 8, factor ABSENT) | FLK-1 expressing cells (hESCs; DAY 8, factor ABSENT) | CD31 expressing cells (hESCs; DAY 8, factor PRESENT) | CD34 expressing cells (hESCs; DAY 8, factor PRESENT) | CD43 expressing cells (hESCs; DAY 8, factor PRESENT) | CD45 expressing cells (hESCs; DAY 8, factor PRESENT) | FLK-1 expressing cells (hESCs; DAY 8, factor PRESENT) | CD31 expressing cells (hESCs; DAY 12, factor ABSENT) | CD34 expressing cells (hESCs; DAY 12, factor ABSENT) | CD43 expressing cells (hESCs; DAY 12, factor ABSENT) | CD45 expressing cells (hESCs; DAY 12, factor ABSENT) | FLK-1 expressing cells (hESCs; DAY 12, factor ABSENT) | CD31 expressing cells (hESCs; DAY 12, factor PRESENT) | CD34 expressing cells (hESCs; DAY 12, factor PRESENT) | CD43 expressing cells (hESCs; DAY 12, factor PRESENT) | CD45 expressing cells (hESCs; DAY 12, factor PRESENT) | FLK-1 expressing cells (hESCs; DAY 12, factor PRESENT) | other results
1 | BMP4: Bone morphogenetic protein-4 | 0.2% | 0.5% | 0.1% | 0.2% | 1.4% | 1.3% | 1.7% | 1.6% | 0.2% | 2.4% | 0.6% | 1.3% | 0.3% | 0.1% | 0.2% | 3.2% | 2.9% | 4.0% | 3.7% | 0.7% | promotion of hematopoietic differentiation (pluripotent cells): did not promote hematopoietic differentiation; CD31 expressing cells (hESCs; DAY 17, factor ABSENT): 1.0%; CD34 expressing cells (hESCs; DAY 17, factor ABSENT): 2.0%; CD43 expressing cells (hESCs; DAY 17, factor ABSENT): 0.7%; CD45 expressing cells (hESCs; DAY 17, factor ABSENT): 0.3%; FLK-1 expressing cells (hESCs; DAY 17, factor ABSENT): 0.8%; CD31 expressing cells (hESCs; DAY 17, factor PRESENT): 11.9%; CD34 expressing cells (hESCs; DAY 17, factor PRESENT): 2.9%; CD43 expressing cells (hESCs; DAY 17, factor PRESENT): 12.8%; CD45 expressing cells (hESCs; DAY 17, factor PRESENT): 12.8%; FLK-1 expressing cells (hESCs; DAY 17, factor PRESENT): 2.7%; role during EB differentiation (hESCs): significant role at all time points
2 | Cc1cncc2cccc(S(=O)(=O)N3CCCNCC3C)c12 (stereo in doubt) [H-1152, (S)-(+)-2-Methyl-1-[(4-methyl-5-isoquinolinyl)sulfonyl]homopiperazine] | – | – | – | – | – | – | – | – | – | – | – | – | – | – | – | – | – | – | – | – | potency relative to HA-100 (ROCK): approximately ten-fold; EB status (hESCs and iPSCs; [1]): Formed; EB status (hESCs and iPSCs; [2]): Formed
3 | VEGF | 0.4% | 0.7% | 0.1% | 0.1% | 2.0% | 1.1% | 1.5% | 1.6% | 0.2% | 1.8% | 0.6% | 1.3% | 0.2% | 0.2% | 0.3% | 3.2% | 2.9% | 4.0% | 3.6% | 0.6% | promotion of hematopoietic differentiation (pluripotent cells): did not promote hematopoietic differentiation; CD31 expressing cells (hESCs; DAY 17, factor ABSENT): 1.0%; CD34 expressing cells (hESCs; DAY 17, factor ABSENT): 2.0%; CD43 expressing cells (hESCs; DAY 17, factor ABSENT): 0.9%; CD45 expressing cells (hESCs; DAY 17, factor ABSENT): 0.4%; FLK-1 expressing cells (hESCs; DAY 17, factor ABSENT): 1.4%; CD31 expressing cells (hESCs; DAY 17, factor PRESENT): 11.8%; CD34 expressing cells (hESCs; DAY 17, factor PRESENT): 2.8%; CD43 expressing cells (hESCs; DAY 17, factor PRESENT): 12.6%; CD45 expressing cells (hESCs; DAY 17, factor PRESENT): 12.7%; FLK-1 expressing cells (hESCs; DAY 17, factor PRESENT): 2.3%; role during EB differentiation (hESCs): significant role at all time points
4 | C[C@@H](N)[C@H]1CC[C@H](C(=O)Nc2ccncc2)CC1 [Y-27632, (R)-(+)-trans-4-(1-Aminoethyl)-N-(4-Pyridyl)cyclohexanecarboxamide] | – | – | – | – | – | – | – | – | – | – | – | – | – | – | – | – | – | – | – | – | EB status (hESCs and iPSCs; [1]): Formed; EB status (hESCs and iPSCs; [2]): Formed
5 | FLT-3: Flt3 ligand, the endogenous ligand for FLT3 (protein, UniProt P49771 27-235, looked up) Fms-related tyrosine kinase 3 …: TQDCSFQHSPISSDFAVKIRELSDYLLQDYPVTVASNLQDEELCGGLWRLVLAQRWMERLKTVAGSKMQGLLERVNTEIHFVTKCAFQPPPSCLRFVQTNISRLLQETSEQLVALKPWITRQNFSRCLELQCQPDSSTLPPPWSPRPLEATAPTAPQPPLLLLLLLPVGLLLLAAAWCLHWQRTRRRTPRPGEQVPPVPSPQDLLLVEH | 0.5% | 0.9% | 0.3% | 0.2% | 1.6% | 1.0% | 1.4% | 1.4% | 0.2% | 2.2% | 1.5% | 1.7% | 1.4% | 1.2% | 0.5% | 2.4% | 2.6% | 3.0% | 2.7% | 0.5% | CD31 expressing cells (hESCs; DAY 17, factor ABSENT): 1.4%; CD34 expressing cells (hESCs; DAY 17, factor ABSENT): 2.2%; CD43 expressing cells (hESCs; DAY 17, factor ABSENT): 1.1%; CD45 expressing cells (hESCs; DAY 17, factor ABSENT): 0.9%; FLK-1 expressing cells (hESCs; DAY 17, factor ABSENT): 1.3%; CD31 expressing cells (hESCs; DAY 17, factor PRESENT): 11.5%; CD34 expressing cells (hESCs; DAY 17, factor PRESENT): 2.6%; CD43 expressing cells (hESCs; DAY 17, factor PRESENT): 12.4%; CD45 expressing cells (hESCs; DAY 17, factor PRESENT): 12.3%; FLK-1 expressing cells (hESCs; DAY 17, factor PRESENT): 2.4%
6 | GCSF: granulocyte colony-stimulating factor (protein, UniProt P09919 31-207, looked up) Granulocyte …: TPLGPASSLPQSFLLKCLEQVRKIQGDGAALQEKLVSECATYKLCHPEELVLLGHSLGIPWAPLSSCPSQALQLAGCLSQLHSGLFLYQGLLQALEGISPELGPTLDTLQLDVADFATTIWQQMEELGMAPALQPTQGAMPAFASAFQRRAGGVLVASHLQSFLEVSYRVLRHLAQP | 0.8% | 1.2% | 1.0% | 0.2% | 2.2% | 0.7% | 1.1% | 0.8% | 0.2% | 1.7% | 2.2% | 2.4% | 2.3% | 2.6% | 0.7% | 1.8% | 2.0% | 2.3% | 1.5% | 0.4% | CD31 expressing cells (hESCs; DAY 17, factor ABSENT): 4.8%; CD34 expressing cells (hESCs; DAY 17, factor ABSENT): 2.7%; CD43 expressing cells (hESCs; DAY 17, factor ABSENT): 4.9%; CD45 expressing cells (hESCs; DAY 17, factor ABSENT): 4.9%; FLK-1 expressing cells (hESCs; DAY 17, factor ABSENT): 1.6%; CD31 expressing cells (hESCs; DAY 17, factor PRESENT): 8.6%; CD34 expressing cells (hESCs; DAY 17, factor PRESENT): 2.2%; CD43 expressing cells (hESCs; DAY 17, factor PRESENT): 9.1%; CD45 expressing cells (hESCs; DAY 17, factor PRESENT): 8.8%; FLK-1 expressing cells (hESCs; DAY 17, factor PRESENT): 2.1%
